The text below walks through data of ChEMBL document CHEMBL5150069, “Solid-Phase Synthesis of Cereblon-Recruiting Selective Histone Deacetylase 6 Degraders (HDAC6 PROTACs) with Antileukemic Activity” (J Med Chem, 2022).

Calls of active or inactive are those of the source. No cut-off for these calls is given here.

The target of experiment [1] is T1, Protein deacetylase HDAC6 (Homo sapiens) (UniProt Q9UBN7).
T1 sequence (whole entry): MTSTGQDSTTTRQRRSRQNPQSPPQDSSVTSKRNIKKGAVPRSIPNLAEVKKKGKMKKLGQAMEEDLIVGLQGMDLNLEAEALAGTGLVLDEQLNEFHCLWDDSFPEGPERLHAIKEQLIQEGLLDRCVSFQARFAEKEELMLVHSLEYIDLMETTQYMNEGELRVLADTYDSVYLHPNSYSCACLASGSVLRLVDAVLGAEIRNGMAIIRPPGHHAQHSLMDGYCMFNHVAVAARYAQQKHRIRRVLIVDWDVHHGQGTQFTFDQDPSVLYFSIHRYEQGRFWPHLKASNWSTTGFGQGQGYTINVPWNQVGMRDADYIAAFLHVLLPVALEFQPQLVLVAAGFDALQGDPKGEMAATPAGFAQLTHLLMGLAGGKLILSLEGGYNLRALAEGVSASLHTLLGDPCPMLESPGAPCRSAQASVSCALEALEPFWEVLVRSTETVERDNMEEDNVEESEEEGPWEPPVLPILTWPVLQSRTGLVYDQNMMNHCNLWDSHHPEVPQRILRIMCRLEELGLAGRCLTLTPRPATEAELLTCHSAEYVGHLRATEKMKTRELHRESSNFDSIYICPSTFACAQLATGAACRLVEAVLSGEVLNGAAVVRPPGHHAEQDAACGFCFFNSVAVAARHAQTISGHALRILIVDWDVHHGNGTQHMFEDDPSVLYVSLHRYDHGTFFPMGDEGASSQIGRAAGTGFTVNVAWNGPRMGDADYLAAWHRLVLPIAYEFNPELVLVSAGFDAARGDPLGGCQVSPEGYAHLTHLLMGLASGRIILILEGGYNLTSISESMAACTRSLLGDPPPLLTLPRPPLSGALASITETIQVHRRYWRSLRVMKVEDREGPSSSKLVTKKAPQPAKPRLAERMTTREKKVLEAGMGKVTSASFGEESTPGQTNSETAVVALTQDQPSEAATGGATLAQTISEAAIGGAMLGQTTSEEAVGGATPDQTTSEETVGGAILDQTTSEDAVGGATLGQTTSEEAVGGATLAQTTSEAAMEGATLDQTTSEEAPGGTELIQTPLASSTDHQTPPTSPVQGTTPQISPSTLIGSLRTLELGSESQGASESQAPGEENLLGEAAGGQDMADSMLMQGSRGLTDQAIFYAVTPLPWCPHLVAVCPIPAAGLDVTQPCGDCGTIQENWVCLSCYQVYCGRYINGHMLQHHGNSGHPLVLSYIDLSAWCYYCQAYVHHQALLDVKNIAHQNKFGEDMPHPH
In words: Induction of HDAC6 degradation in human HL-60 cells at 0.1 to 10 uM after 6 hrs by Western blot analysis. As to conditions: dose 0.1-10 µM. Format: cell-based.

The target of experiment [2] is T2, Protein deacetylase HDAC6 (Homo sapiens, UniProt Q9UBN7).
T2 sequence (Q9UBN7 whole entry): T1 sequence (whole entry)
In words: Inhibition of recombinant full length N-terminal GST-tagged human HDAC6 (1 to 1215 residues) using Z-Lys(Ac)-AMC as substrate preincubated for 90 mins followed by trypsin addition and measured after 30 mins by fluorescence based microplate reader analysis.

The target of experiment [3] is T3, Histone deacetylase 1 (Homo sapiens, UniProt Q13547). The experiment can be described thus: Inhibition of recombinant full length C-terminal His/Flag-tagged human HDAC1 (1 to 482 residues) using Z-Lys(Ac)-AMC as substrate preincubated for 90 mins followed by trypsin addition and measured after 30 mins by fluorescence based microplate reader analysis.
For experiment [4], the target named is T1, Protein deacetylase HDAC6 (Homo sapiens). The experiment can be described thus: Induction of Hitbit-fused HDAC6 degradation in human K562 cells at 1 uM after 5.5 to 7.5 hrs by NanoGlo HiBit lytic assay. Format: cell-based. As to conditions: time 5.5-7.5 hrs. In general terms: The HiBiT peptide binds its large partner to form an active luciferase.
For experiment [5] the target is unchanged. The experiment can be described thus: Induction of HDAC6 degradation in human HL-60 cells assessed as maximum degradation after 6 hrs by Western immunoassay. The format is cell-based.
Experiment [6] addresses T2, Protein deacetylase HDAC6. The experiment can be described thus: Induction of HDAC6 degradation in human HL-60 cells after 6 hrs by Western immunoassay. Format: cell-based.
The target in experiment [7] is T1, Protein deacetylase HDAC6 (Homo sapiens). In words: Induction of HDAC6 degradation in human U-266 cells assessed as hyperacetylation of alpha-tubulin at 100 to 1000 nM incubated for 24 hrs by Western blot analysis. The format is cell-based. As to conditions: dose 100-1000 nM.
Experiment [8] has the same target. In words: Induction of HDAC6 degradation in human HL-60 cells assessed as hyperacetylation of alpha-tubulin at 0.1 to 10 uM after 6 hrs by Western blot analysis. Format: cell-based. As to conditions: dose 0.1-10 µM. Background: In western blotting, separated proteins are transferred to a membrane and probed.
The target is the same in experiment [9]. The experiment can be described thus: Induction of HDAC6 degradation in human U-266 cells at 100 to 1000 nM incubated for 24 hrs by Western blot analysis. The format is cell-based. As to conditions: dose 100-1000 nM.
The target of experiment [10] is T2, Protein deacetylase HDAC6. In words: Induction of HDAC6 degradation in human HL-60 cells assessed as hyperacetylation of alpha-tubulin after 6 hrs by Western immunoassay. The format is cell-based.
Experiment [11] addresses T3, Histone deacetylase 1. The experiment can be described thus: Induction of HDAC1 degradation in human HL-60 cells assessed as hyperacetylation of histone H3 at 0.1 to 10 uM after 6 hrs by Western blot analysis. The format is cell-based. As to conditions: dose 0.1-10 µM.
For experiment [12], the target named is T1, Protein deacetylase HDAC6 (Homo sapiens). The experiment can be described thus: Induction of HDAC6 degradation in human HL-60 cells at 1 uM after 3 to 6 hrs by fluorescence microscopy analysis. The format is cell-based. As to conditions: time 3-6 hrs.
The test system of experiment [13] is MOLM-13. The experiment can be described thus: Cytotoxicity against human MOLM-13 cells assessed as reduction in cell viability incubated for 72 hrs by ATP based Celltiter-glo luminescent assay. The format is functional. As to conditions: MOLM-13, 72 h. A general note: Cellular ATP, detected with luciferase, serves as a proxy for viable cell number.
Experiment [14] deals with MOLM-13. The experiment can be described thus: Induction of cell cycle arrest in human MOLM-13 cells assessed as increase in sub-G1 phase population incubated for 48 hrs by PI staining based flow cytometry analysis. Format: functional. As to conditions: dose 8-24 µM, DDE = dose-dependent effect.
Experiment [15] has as its system MOLM-13. In words: Induction of apoptosis in human MOLM-13 cells after 48 hrs by Annexin-V and PI staining based flow cytometry assay. Format: functional, cell-based. As to conditions: dose 8-24 µM, DDE = dose-dependent effect.
Experiment [16] has as its system MOLM-13. In words: Induction of cell cycle arrest in human MOLM-13 cells assessed as increase in sub-G1 phase population at 8 uM incubated for 48 hrs by PI staining based flow cytometry analysis (reference value: […]). Format: functional.
The test system of experiment [17] is MOLM-13. In words: Induction of cell cycle arrest in human MOLM-13 cells assessed as increase in sub-G1 phase population at 24 uM incubated for 48 hrs by PI staining based flow cytometry analysis (reference value: […]). Format: functional.
Experiment [18] deals with T1, Protein deacetylase HDAC6 (Homo sapiens). The experiment can be described thus: Induction of HDAC6 degradation in human HL-60 cells assessed as hyperacetylation of histone H3 at 1 uM after 24 hrs. The format is cell-based.
Experiment [19] has the same target. The experiment can be described thus: Induction of HDAC6 degradation in human HL-60 cells at 100 nM after 3 hrs by fluorescence microscopy analysis. Format: cell-based.
For experiment [20], the system named is MOLM-13. In words: Induction of cell cycle arrest in human MOLM-13 cells assessed as increase in sub-G1 phase population at 16 uM incubated for 48 hrs by PI staining based flow cytometry analysis (reference value: […]). Format: functional.
Experiment [21] deals with MOLM-13. In words: Induction of cell cycle arrest in human MOLM-13 cells assessed as reduction in G2/M phase population incubated for 48 hrs by PI staining based flow cytometry analysis. The format is functional. As to conditions: dose 8-24 µM, DDE = dose-dependent effect.
Experiment [22] concerns the target T1, Protein deacetylase HDAC6 (Homo sapiens). In words: Induction of HDAC6 degradation in human HL-60 cells at 100 nM after 6 hrs by fluorescence microscopy analysis. Format: cell-based.

T3 sequence (Q13547 whole entry, the tested form may be a part): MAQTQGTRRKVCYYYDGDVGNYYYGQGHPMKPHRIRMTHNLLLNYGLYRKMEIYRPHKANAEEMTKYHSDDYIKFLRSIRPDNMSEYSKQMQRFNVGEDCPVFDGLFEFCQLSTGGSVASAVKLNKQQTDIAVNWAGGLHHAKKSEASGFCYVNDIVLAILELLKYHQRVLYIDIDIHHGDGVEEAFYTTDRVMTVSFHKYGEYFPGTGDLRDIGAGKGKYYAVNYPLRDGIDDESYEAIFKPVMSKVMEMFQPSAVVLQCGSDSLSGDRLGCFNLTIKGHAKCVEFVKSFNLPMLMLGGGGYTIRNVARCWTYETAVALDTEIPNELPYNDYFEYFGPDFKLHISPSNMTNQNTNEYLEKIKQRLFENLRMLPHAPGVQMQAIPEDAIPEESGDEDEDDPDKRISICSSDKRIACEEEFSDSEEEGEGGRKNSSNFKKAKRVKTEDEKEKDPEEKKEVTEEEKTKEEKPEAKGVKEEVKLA

Turning to `O=C(CCCCCCNC(=O)c1ccc(NC(=O)COCCOCCNC(=O)COc2cccc3c2C(=O)N(C2CCC(=O)NC2=O)C3=O)cc1)NO` (stereo not drawn), the outcome in experiment [1] was Active.
Turning to `Cc1nc2cc(NC(=O)CCOCCOCCOCCOCCNC(=O)COc3cccc4c3C(=O)N(C3CCC(=O)NC3=O)C4=O)ccc2n1Cc1ccc(C(=O)NO)cc1F` (stereo not drawn), the 50% inhibitory concentration (IC50) in [2] and in experiment [3] was 1490 nM in each case.
In the case of `O=C(CCCCCCNC(=O)c1ccc(NC(=O)CCOCCOCCOCCOCCNC(=O)COc2cccc3c2C(=O)N(C2CCC(=O)NC2=O)C3=O)cc1)NO` (stereo not drawn), the IC50 in [2] turned out to be 20.8 nM; in [3] it was 208 nM.
As for `Cc1nc2cc(NC(=O)CCCCCCCNC(=O)COc3cccc4c3C(=O)N(C3CCC(=O)NC3=O)C4=O)ccc2n1Cc1ccc(C(=O)NO)cc1F` (stereo not drawn), the outcome in [4], in experiment [7], in [8], in [1] and in experiment [9] was Active. The Emax in [5] came to 92.8%. Besides, the 50% degradation concentration (DC50) in experiment [6] worked out at 19.4 nM. Also, the IC50 in experiment [2] and in experiment [3] was 647 nM in each case. Further, the EC50 in [10] came out at 5450 nM.
Take `Cc1nc2cc(NC(=O)CCOCCOCCOCCOCCNC(=O)CNc3cccc4c3C(=O)N(C3CCC(=O)NC3=O)C4=O)ccc2n1Cc1ccc(C(=O)NO)cc1F` (stereo not drawn): the IC50 in experiment [2] and in experiment [3] was 1420 nM each time.
Consider `O=C(CCCCCCNC(=O)c1ccc(NC(=O)CCOCCOCCOCCNC(=O)COc2cccc3c2C(=O)N(C2CCC(=O)NC2=O)C3=O)cc1)NO` (stereo not drawn), for which the IC50 in experiment [2] stood at 17 nM; in experiment [3], 161 nM.
Turning to `Cc1nc2cc(NC(=O)CCOCCOCCOCCNC(=O)COc3cccc4c3C(=O)N(C3CCC(=O)NC3=O)C4=O)ccc2n1Cc1ccc(C(=O)NO)cc1F` (stereo not drawn), the IC50 in experiment [2] and in [3] was 1310 nM in each case.
For `O=C(CCCCCCNC(=O)c1ccc(NC(=O)CCOCCOCCOCCOCCNC(=O)CNc2cccc3c2C(=O)N(C2CCC(=O)NC2=O)C3=O)cc1)NO` (stereo not drawn), the results for the IC50 in [2] and in experiment [3] were 15 nM and 186 nM, respectively.
With `O=C(CCCCCCNC(=O)c1ccc(NC(=O)CCCCCCCNC(=O)COc2cccc3c2C(=O)N(C2CCC(=O)NC2=O)C3=O)cc1)NO` (stereo not drawn), the result in experiment [11], in experiment [4], in experiment [12], in [7], in experiment [8] and in [1] was Active. For the same molecule, the outcome in experiment [9], in [18], in [19] and in experiment [22] was Active. For the same molecule, in experiment [5], the Emax worked out at 84.5%. For the same molecule, the IC50 in [13] was 17400 nM. The Activity result is “Dde” in experiment [14]; “Dde” in experiment [15]; 7.5% in [16]; 13.4% in [17]; 9.9% in experiment [20]; “Dde” in [21].
For the molecule `O=C(CCCCCCNC(=O)c1ccc(NC(=O)COCCNC(=O)COc2cccc3c2C(=O)N(C2CCC(=O)NC2=O)C3=O)cc1)NO` (stereo not drawn), the half-inhibitory concentration (IC50) in [2] was found to be 12 nM; in experiment [3] it was 155 nM.

For orientation: IC50 means the concentration needed to halve the response being measured. One may read the Emax as the greatest response seen or fitted, relative to the assay's reference. What is called DC50 is the concentration at which degradation of the target reaches its halfway point. A low value points to a more potent degrader. One may read the EC50 as the concentration giving half of the maximal effect.
